{
  "source": "paper PMC5218480",
  "about": "(PLoS ONE, 2017)",
  "system": "MV-4-11 cells",
  "assay": "Gene expression microarray analysis (Affymetrix PrimeView) and GSEA",
  "assay_type": "cell-based, human",
  "set-up": "RFU PODN (11730768_x_at) / Fold change /veh PODN (11730768_x_at) / RFU LINC00158 (11744669_a_at) / Fold change /veh LINC00158 (11744669_a_at) / RFU DUSP10 (11751237_a_at) / Fold change /veh DUSP10 (11751237_a_at) / RFU ID3 (11757404_x_at) / Fold change /veh ID3 (11757404_x_at) / RFU PLEKHG5 (11737974_s_at) / Fold change /veh PLEKHG5 (11737974_s_at) / RFU LRRC4B (11730491_at) / Fold change /veh LRRC4B (11730491_at) / RFU GIMAP4 (11747438_a_at) / Fold change /veh GIMAP4 (11747438_a_at) / RFU KRT8 (11758183_x_at) / Fold change /veh KRT8 (11758183_x_at) / RFU CNN1 (11734310_a_at) / Fold change /veh CNN1 (11734310_a_at) / RFU VPS37D (11726825_at) / Fold change /veh VPS37D (11726825_at) / RFU C10orf10 (11716522_x_at) / Fold change /veh C10orf10 (11716522_x_at) / RFU KIR2DL2 /// KIR2DL4 /// KIR2DL5A /// KIR2DL5B /// KIR2DS1 /// KIR2DS2 /// KIR2DS3 /// KIR2DS4 /// KIR3DL3 /// KIR3DL3 /// KIR3DS1 (11738374_at) / Fold change /veh KIR2DL2 /// KIR2DL4 /// KIR2DL5A /// KIR2DL5B /// KIR2DS1 /// KIR2DS2 /// KIR2DS3 /// KIR2DS4 /// KIR3DL3 /// KIR3DL3 /// KIR3DS1 (11738374_at) / RFU C1QL1 (11718748_at) / Fold change /veh C1QL1 (11718748_at) / RFU TMPRSS4 (11747572_a_at) / Fold change /veh TMPRSS4 (11747572_a_at) / RFU HAMP (11756126_x_at) / Fold change /veh HAMP (11756126_x_at) / RFU RNFT2 (11725882_a_at) / Fold change /veh RNFT2 (11725882_a_at) / RFU NR4A2 (11747474_a_at) / Fold change /veh NR4A2 (11747474_a_at) / RFU ABCC12 (11746883_a_at) / Fold change /veh ABCC12 (11746883_a_at) / RFU TMEM136 (11760407_x_at) / Fold change /veh TMEM136 (11760407_x_at) / RFU CLDN22 /// WWC2 (11732394_at) / Fold change /veh CLDN22 /// WWC2 (11732394_at) / RFU HLA-DPB1 (11760878_x_at) / Fold change /veh HLA-DPB1 (11760878_x_at) / RFU SPINT1 (11716480_a_at) / Fold change /veh SPINT1 (11716480_a_at) / RFU GAP43 (11754022_s_at) / Fold change /veh GAP43 (11754022_s_at) / RFU A4GNT (11735810_at) / Fold change /veh A4GNT (11735810_at) / RFU PRB3 (11715151_x_at) / Fold change /veh PRB3 (11715151_x_at) / RFU TUBB4B (11761932_at) / Fold change /veh TUBB4B (11761932_at) / RFU CAPN14 (11732068_a_at) / Fold change /veh CAPN14 (11732068_a_at) / RFU TMCC2 (11721928_a_at) / Fold change /veh TMCC2 (11721928_a_at) / RFU IRGQ (11745062_a_at) / Fold change /veh IRGQ (11745062_a_at) / RFU FAM174B (11720279_a_at) / Fold change /veh FAM174B (11720279_a_at) / RFU TMPRSS4 (11748680_a_at) / Fold change /veh TMPRSS4 (11748680_a_at) / RFU FAM212B (11763350_a_at) / Fold change /veh FAM212B (11763350_a_at) / RFU PLEKHG5 (11743358_a_at) / Fold change /veh PLEKHG5 (11743358_a_at) / RFU ZSCAN30 (11745921_a_at) / Fold change /veh ZSCAN30 (11745921_a_at) / RFU CMKLR1 (11741424_a_at) / Fold change /veh CMKLR1 (11741424_a_at) / RFU LOC101060620 /// MAPK8IP1 (11723275_at) / Fold change /veh LOC101060620 /// MAPK8IP1 (11723275_at) / RFU SPTSSB (11747773_x_at) / Fold change /veh SPTSSB (11747773_x_at) / RFU PRSS12 (11739890_at) / Fold change /veh PRSS12 (11739890_at) / RFU BIN1 (11741810_x_at) / Fold change /veh BIN1 (11741810_x_at) / RFU WNT11 (11732464_a_at) / Fold change /veh WNT11 (11732464_a_at) / RFU C10orf10 (11716521_a_at) / Fold change /veh C10orf10 (11716521_a_at) / RFU C5orf56 (11738089_at) / Fold change /veh C5orf56 (11738089_at) / RFU CYB561 (11721691_x_at) / Fold change /veh CYB561 (11721691_x_at) / RFU ANKRD19P (11752326_a_at) / Fold change /veh ANKRD19P (11752326_a_at) / RFU OR2T12 /// OR2T33 /// OR2T8 (11738714_s_at) / Fold change /veh OR2T12 /// OR2T33 /// OR2T8 (11738714_s_at) / RFU VCAN (11748164_a_at) / Fold change /veh VCAN (11748164_a_at) / RFU JSRP1 (11732532_at) / Fold change /veh JSRP1 (11732532_at) / RFU KRTAP10-11 (11738290_x_at) / Fold change /veh KRTAP10-11 (11738290_x_at) / RFU MYO3A (11730013_a_at) / Fold change /veh MYO3A (11730013_a_at) / RFU EBF3 (11725865_a_at) / Fold change /veh EBF3 (11725865_a_at) / RFU CAMK2N1 (11719241_x_at) / Fold change /veh CAMK2N1 (11719241_x_at) / RFU C5orf56 (11738088_a_at) / Fold change /veh C5orf56 (11738088_a_at) / RFU OLFML3 (11715873_a_at) / Fold change /veh OLFML3 (11715873_a_at) / RFU LOC100653217 /// NTM (11731650_a_at) / Fold change /veh LOC100653217 /// NTM (11731650_a_at) / RFU MAPK11 (11762145_a_at) / Fold change /veh MAPK11 (11762145_a_at) / RFU FIZ1 (11724087_x_at) / Fold change /veh FIZ1 (11724087_x_at) / RFU OASL (11726364_x_at) / Fold change /veh OASL (11726364_x_at) / RFU SOX15 (11748057_x_at) / Fold change /veh SOX15 (11748057_x_at) / RFU CD79A (11719716_a_at) / Fold change /veh CD79A (11719716_a_at) / RFU HIST1H1D (11736915_at) / Fold change /veh HIST1H1D (11736915_at) / RFU CASKIN2 (11723855_a_at) / Fold change /veh CASKIN2 (11723855_a_at) / RFU LOC730098 (11760151_x_at) / Fold change /veh LOC730098 (11760151_x_at) / RFU OR4N2 (11742367_at) / Fold change /veh OR4N2 (11742367_at) / RFU PRRT2 (11749266_a_at) / Fold change /veh PRRT2 (11749266_a_at) / RFU SNX32 (11753110_a_at) / Fold change /veh SNX32 (11753110_a_at) / RFU CDHR5 (11726645_a_at) / Fold change /veh CDHR5 (11726645_a_at) / RFU RCAN1 (11760418_a_at) / Fold change /veh RCAN1 (11760418_a_at) / RFU FAM167A (11723789_a_at) / Fold change /veh FAM167A (11723789_a_at) / RFU FAM26E (11764081_at) / Fold change /veh FAM26E (11764081_at) / RFU ISYNA1 (11749810_s_at) / Fold change /veh ISYNA1 (11749810_s_at) / RFU ACY1 (11761880_at) / Fold change /veh ACY1 (11761880_at) / RFU 11764098_at / Fold change /veh 11764098_at / RFU SAMD14 (11745864_x_at) / Fold change /veh SAMD14 (11745864_x_at) / RFU NPB (11741838_a_at) / Fold change /veh NPB (11741838_a_at) / RFU TMPRSS6 (11731388_a_at) / Fold change /veh TMPRSS6 (11731388_a_at) / RFU KRTAP10-2 (11738614_at) / Fold change /veh KRTAP10-2 (11738614_at) / RFU ARHGAP8 /// PRR5-ARHGAP8 (11727945_x_at) / Fold change /veh ARHGAP8 /// PRR5-ARHGAP8 (11727945_x_at) / RFU KRTAP5-7 /// NADSYN1 (11734609_at) / Fold change /veh KRTAP5-7 /// NADSYN1 (11734609_at) / RFU RASL12 (11751679_a_at) / Fold change /veh RASL12 (11751679_a_at) / RFU CDKN2B (11736163_a_at) / Fold change /veh CDKN2B (11736163_a_at) / RFU PRF1 (11729649_at) / Fold change /veh PRF1 (11729649_at) / RFU, ZNF638 /// ZNF638-IT1 / Fold change vs veh, ZNF638 /// ZNF638-IT1 / RFU, PANK3 / Fold change vs veh, PANK3 / RFU, SH3YL1 / Fold change vs veh, SH3YL1 / RFU, ZEB2 / Fold change vs veh, ZEB2 / RFU, NRIP1 / Fold change vs veh, NRIP1 / RFU, PTTG1IP / Fold change vs veh, PTTG1IP / RFU, CAPN2 / Fold change vs veh, CAPN2 / RFU, MED14 / Fold change vs veh, MED14 / RFU, SNORA58 / Fold change vs veh, SNORA58 / RFU, C1orf63 / Fold change vs veh, C1orf63 / RFU, LRRFIP1 / Fold change vs veh, LRRFIP1 / RFU, NDUFAF7 / Fold change vs veh, NDUFAF7 / RFU, SLC12A2 / Fold change vs veh, SLC12A2 / RFU, IBTK / Fold change vs veh, IBTK / RFU, ESF1 / Fold change vs veh, ESF1 / Fold change vs veh, TMEM50B / RFU, TAOK1 / Fold change vs veh, TAOK1 / RFU, ACBD3 / Fold change vs veh, ACBD3 / RFU, TMA16 / Fold change vs veh, TMA16 / RFU, RWDD3 / Fold change vs veh, RWDD3 / RFU, BCAT1 / Fold change vs veh, BCAT1 / RFU, EDEM3 / Fold change vs veh, EDEM3 / RFU, TMEM33 / Fold change vs veh, TMEM33 / RFU, WDR75 / Fold change vs veh, WDR75 / RFU, AHCTF1 / Fold change vs veh, AHCTF1 / RFU, TFRC / Fold change vs veh, TFRC / RFU, ZDHHC17 / Fold change vs veh, ZDHHC17 / RFU, NOM1 / Fold change vs veh, NOM1 / RFU, ARL8B / Fold change vs veh, ARL8B / RFU, ZBTB11 / Fold change vs veh, ZBTB11 / RFU, TAMM41 / Fold change vs veh, TAMM41 / RFU, KIAA1704 /// LOC100996395 / Fold change vs veh, KIAA1704 /// LOC100996395 / RFU, ING1 / Fold change vs veh, ING1 / RFU, TRMT61B / Fold change vs veh, TRMT61B / RFU, FUBP3 / Fold change vs veh, FUBP3 / RFU, TP53 / Fold change vs veh, TP53 / RFU, TNKS2 / Fold change vs veh, TNKS2 / RFU, ZFP14 / Fold change vs veh, ZFP14 / RFU, ACTR2 / Fold change vs veh, ACTR2 / RFU, PPP3R1 / Fold change vs veh, PPP3R1 / RFU, PIK3R1 / Fold change vs veh, PIK3R1 / RFU, HNRNPA1 / Fold change vs veh, HNRNPA1 / RFU, RNF170 / Fold change vs veh, RNF170 / RFU, ZNF28 / Fold change vs veh, ZNF28 / RFU, RNGTT / Fold change vs veh, RNGTT / RFU, OGT / Fold change vs veh, OGT / RFU, BRD1 / Fold change vs veh, BRD1 / RFU, MARS / Fold change vs veh, MARS / RFU, ZNF655 / Fold change vs veh, ZNF655 / RFU, FAHD1 / Fold change vs veh, FAHD1 / RFU, BDP1 / Fold change vs veh, BDP1 / RFU, LRRCC1 / Fold change vs veh, LRRCC1 / RFU, ARID1A / Fold change vs veh, ARID1A / RFU, ZNF146 / Fold change vs veh, ZNF146 / RFU, ZNF330 / Fold change vs veh, ZNF330 / RFU, GPN3 / Fold change vs veh, GPN3 / RFU, C9orf123 / Fold change vs veh, C9orf123 / RFU, N4BP2L2 / Fold change vs veh, N4BP2L2 / RFU, ARFIP1 / Fold change vs veh, ARFIP1 / RFU, FAM179B / Fold change vs veh, FAM179B / RFU, BCL10 / Fold change vs veh, BCL10 / RFU, UHRF1BP1L / Fold change vs veh, UHRF1BP1L / RFU, BET1 / Fold change vs veh, BET1 / RFU, CNOT2 / Fold change vs veh, CNOT2 / RFU, ZNF268 / Fold change vs veh, ZNF268 / Fold change vs veh, ZNF507 / RFU, DGCR2 / Fold change vs veh, DGCR2 / RFU, WDSUB1 / Fold change vs veh, WDSUB1 / Fold change vs veh, HSP90B1 /// MIR3652 / RFU, ADSS / Fold change vs veh, ADSS / RFU, GK / Fold change vs veh, GK / RFU, ZNF148 / Fold change vs veh, ZNF148 / RFU, TAF9 / Fold change vs veh, TAF9 / RFU, SLC1A5 / Fold change vs veh, SLC1A5 / RFU, SLMO2 / Fold change vs veh, SLMO2 / RFU, ABCC4 / Fold change vs veh, ABCC4 / RFU, LOC101060439 /// RAP1B / Fold change vs veh, LOC101060439 /// RAP1B / RFU, RFX7 / Fold change vs veh, RFX7 / RFU, GTPBP10 / Fold change vs veh, GTPBP10 / RFU, CNEP1R1 / Fold change vs veh, CNEP1R1 / RFU, BIVM-ERCC5 /// ERCC5 / Fold change vs veh, BIVM-ERCC5 /// ERCC5 / RFU, ILF3 / Fold change vs veh, ILF3 / RFU 11762660_at / Fold change /veh 11762660_at / RFU VCAN (11757783_s_at) / Fold change /veh VCAN (11757783_s_at) / RFU DDX43 (11728927_at) / Fold change /veh DDX43 (11728927_at) / RFU KRT8 (11758188_x_at) / Fold change /veh KRT8 (11758188_x_at) / RFU NKD1 (11759106_at) / Fold change /veh NKD1 (11759106_at) / RFU SRD5A1 (11742802_a_at) / Fold change /veh SRD5A1 (11742802_a_at) / RFU TPSAB1 /// TPSB2 (11721975_s_at) / Fold change /veh TPSAB1 /// TPSB2 (11721975_s_at) / RFU GSTM3 (11746129_a_at) / Fold change /veh GSTM3 (11746129_a_at) / RFU IL23R (11737362_x_at) / Fold change /veh IL23R (11737362_x_at) / RFU TMEM51 (11727254_a_at) / Fold change /veh TMEM51 (11727254_a_at) / RFU PIWIL2 (11732686_x_at) / Fold change /veh PIWIL2 (11732686_x_at) / RFU ORM1 (11744905_x_at) / Fold change /veh ORM1 (11744905_x_at) / RFU CCDC152 (11743942_at) / Fold change /veh CCDC152 (11743942_at) / RFU ECM1 (11717891_a_at) / Fold change /veh ECM1 (11717891_a_at) / RFU IL23R (11748794_a_at) / Fold change /veh IL23R (11748794_a_at) / RFU TNFAIP8L3 (11732012_x_at) / Fold change /veh TNFAIP8L3 (11732012_x_at) / RFU MBOAT4 (11741988_at) / Fold change /veh MBOAT4 (11741988_at) / RFU 11764193_at / Fold change /veh 11764193_at / RFU TMEM53 (11763286_at) / Fold change /veh TMEM53 (11763286_at) / RFU MAGEB2 (11727129_at) / Fold change /veh MAGEB2 (11727129_at) / RFU TMEM200A (11744735_a_at) / Fold change /veh TMEM200A (11744735_a_at) / RFU CCDC152 (11751479_a_at) / Fold change /veh CCDC152 (11751479_a_at) / RFU FAM211A (11726209_a_at) / Fold change /veh FAM211A (11726209_a_at) / RFU RGS16 (11746705_a_at) / Fold change /veh RGS16 (11746705_a_at) / RFU VCAN (11755009_s_at) / Fold change /veh VCAN (11755009_s_at) / RFU RHOB (11743442_s_at) / Fold change /veh RHOB (11743442_s_at) / RFU RGS16 (11720943_a_at) / Fold change /veh RGS16 (11720943_a_at) / RFU RGS16 (11720944_at) / Fold change /veh RGS16 (11720944_at) / RFU, VPS4B / Fold change vs veh, VPS4B / RFU, CREB1 / Fold change vs veh, CREB1 / RFU, DNAJC13 / Fold change vs veh, DNAJC13 / RFU, GNAQ / Fold change vs veh, GNAQ / RFU, CDK5R1 / Fold change vs veh, CDK5R1 / RFU, ZRANB3 / Fold change vs veh, ZRANB3 / RFU, CUL4A / Fold change vs veh, CUL4A / RFU, CCNY / Fold change vs veh, CCNY / RFU, UFL1 / Fold change vs veh, UFL1 / RFU, COG3 / Fold change vs veh, COG3 / RFU, DIAPH2 / Fold change vs veh, DIAPH2 / RFU, SKA2 / Fold change vs veh, SKA2 / RFU, AFF3 / Fold change vs veh, AFF3 / RFU, LMF1 / Fold change vs veh, LMF1 / RFU, IPO11 / Fold change vs veh, IPO11 / RFU, DFFB / Fold change vs veh, DFFB / RFU, FOXP1 / Fold change vs veh, FOXP1 / RFU, CARD8 / Fold change vs veh, CARD8 / RFU, STRN3 / Fold change vs veh, STRN3 / RFU, ADK / Fold change vs veh, ADK / RFU, RASSF2 / Fold change vs veh, RASSF2 / RFU, WIPF1 / Fold change vs veh, WIPF1 / RFU, LARP1B / Fold change vs veh, LARP1B / RFU, RASA1 / Fold change vs veh, RASA1 / RFU, RB1 / Fold change vs veh, RB1 / RFU, PPFIA1 / Fold change vs veh, PPFIA1 / RFU, MAT2A / Fold change vs veh, MAT2A / RFU, CCT5 / Fold change vs veh, CCT5 / RFU, WDR92 / Fold change vs veh, WDR92 / RFU, CUX1 / Fold change vs veh, CUX1 / RFU, TTC7A / Fold change vs veh, TTC7A / RFU, TMEM135 / Fold change vs veh, TMEM135 / RFU, DEPTOR / Fold change vs veh, DEPTOR / RFU, CPM / Fold change vs veh, CPM / RFU, DNAJB6 / Fold change vs veh, DNAJB6 / RFU, CACNA2D3 / Fold change vs veh, CACNA2D3 / RFU, DTX4 / Fold change vs veh, DTX4 / RFU, TFCP2 / Fold change vs veh, TFCP2 / RFU, GMCL1 /// GMCL1P1 / Fold change vs veh, GMCL1 /// GMCL1P1 / RFU, AEBP2 / Fold change vs veh, AEBP2 / RFU, SNHG1 /// SNORD22 /// SNORD25 /// SNORD26 /// SNORD27 /// SNORD28 /// SNORD29 /// SNORD31 / Fold change vs veh, SNHG1 /// SNORD22 /// SNORD25 /// SNORD26 /// SNORD27 /// SNORD28 /// SNORD29 /// SNORD31 / Fold change (Aza/veh), C12orf56 (ProbeSet 11735607_a_at) / Fold change (ACY-1035/veh), C12orf56 (ProbeSet 11735607_a_at) / Fold change (Aza/veh), FGFR1OP (ProbeSet 11751329_s_at) / Fold change (ACY-1035/veh), FGFR1OP (ProbeSet 11751329_s_at) / Fold change (Aza/veh), VPS36 (ProbeSet 11739960_a_at) / Fold change (ACY-1035/veh), VPS36 (ProbeSet 11739960_a_at) / RFU SYPL1 (11715823_x_at) / Fold change /veh SYPL1 (11715823_x_at) / RFU IGFBP7 (11715501_s_at) / Fold change /veh IGFBP7 (11715501_s_at) / RFU REEP3 (11722064_at) / Fold change /veh REEP3 (11722064_at) / RFU IGLL1 (11728026_x_at) / Fold change /veh IGLL1 (11728026_x_at): dose or concentration left out as unconfirmed",
  "settings": "MV-4-11 cells, 48 hours",
  "data": [
    {"smiles": "Nc1ncn([C@@H]2O[C@H](CO)[C@@H](O)[C@H]2O)c(=O)n1", "note": "[azacitidine]", "values": [
      {"measurement": "Fold change /veh TNFAIP8L3 (11732012_x_at)", "result": 1.33}
    ]}
  ]
}
